{"source": "ChEMBL document CHEMBL1649513", "about": "“Population pharmacokinetics of acyclovir in children and young people with malignancy after administration of intravenous acyclovir or oral valacyclovir” (Antimicrob Agents Chemother, 2009)", "key": {"[1]": {"test": "Bioavailability in immunocompromized children at […], po administered every 12 hrs", "type": "ADME, organism-based", "conditions": "human, in vivo"}, "[2]": {"test": "Bioavailability in children and young patient with malignancy", "type": "ADME, organism-based", "conditions": "human, in vivo"}}}
{"smiles": "Nc1nc2c(ncn2COCCO)c(=O)[nH]1", "note": "[ACYCLOVIR]", "values": [{"measurement": "bioavailability", "setting": "[1]", "value": 48, "unit": "%"}, {"measurement": "bioavailability", "setting": "[2]", "value": 60, "unit": "%"}]}
